Values of other authors as cited in article PMC7395068, “The evolution of strategies to minimise the risk of human drug-induced liver injury (DILI) in drug discovery and development” (Archives of Toxicology, 2020).
Read-outs that look alike come from different tables or passages of the source.

Assays:
[1] = cited from earlier work
[2] = cited from earlier work; remark: listed apart in the source
[3] = test system: isolated mouse liver mitochondria; conditions: In vitro Assay; ref Porceddu 2012; cited from earlier work
HepG2 cells = conditions: cited from earlier work
human hepatocytes = conditions: cited from earlier work
[4] = test system: THLE or HepG2 cells, isolated mitochondria, BSEP; conditions: cited from earlier work
[5] = test system: primary human hepatocytes, NIH3T3 fibroblasts, BSEP, CYP3A4; conditions: In vitro Assay; ref Schadt 2015; cited from earlier work
[6] = In vitro Assay, ref Persson 2013

Row | Compound | DILI +VE (5-8), DILI -VE (-4) ([1]; ref Chen 2016) | DILI severity category ([1]; ref Chen 2016) | In vivo DILI ([2]; ref Porceddu 2012) | in vitro data EC2<=1x Cmax [3] | in vitro data EC20<=2uM [3] | also measured
1 | COc1cccc(C2(O)CCCCC2CN(C)C)c1 (centres unmarked) [tramadol] | -VE | Ambiguous DILI-concern | +VE | -VE | -VE | 
2 | Nc1ccc(C(=O)O)c(O)c1 [aminosalicylic acid] |  |  |  |  |  | Cluser analysis (HepG2 cells; [6]): -VE; Structural based (HCI) (HepG2 cells; [6]): -VE; Structural based (HCI) (human hepatocytes): +VE; In vivo DILI ([2]; in vivo): +VE
3 | Nc1nc(=O)c2c([nH]1)NC[C@@H](CNc1ccc(C(=O)N[C@@H](CCC(=O)O)C(=O)O)cc1)N2C=O [folinic acid] |  |  |  |  |  | Cluser analysis (HepG2 cells; [6]): -VE; Structural based (HCI) (HepG2 cells; [6]): -VE; In vivo DILI ([2]; ref Persson 2013): -VE
4 | COc1cc2ncnc(Nc3ccc(F)c(Cl)c3)c2cc1OCCCN1CCOCC1 [gefitinib] |  |  |  | +VE |  | Partition Hybrid HRM Score ([4]; In vitro Assay, ref Aleo 2019): +VE; Ro2 Hybrid HRM Score ([4]; In vitro Assay, ref Aleo 2019): +VE
5 | CCCN1C[C@H](CSC)C[C@@H]2c3cccc4[nH]cc(c34)C[C@H]21 [pergolide] | -VE | Ambiguous DILI-concern |  |  |  | Cluser analysis (HepG2 cells; [6]): -VE; Structural based (HCI) (HepG2 cells; [6]): -VE; In vivo DILI ([2]; ref Persson 2013): -VE
6 | CNC(=O)c1cc(Oc2ccc(NC(=O)Nc3ccc(Cl)c(C(F)(F)F)c3)cc2)ccn1 [sorafenib] | +VE | vMost-DILI-Concern | +VE | +VE | -VE | Partition Hybrid HRM Score ([4]; In vitro Assay, ref Aleo 2019): +VE; Ro2 Hybrid HRM Score ([4]; In vitro Assay, ref Aleo 2019): +VE; In vivo DILI ([2]; ref Aleo 2019): +VE
7 | CCOC(=O)[N-]c1cn(N2CCOCC2)n[o+]1 [Molsidomine] |  |  | -VE | -VE | -VE | 
8 | Clc1ccc(COC(Cn2ccnc2)c2ccc(Cl)cc2Cl)cc1 (centres unmarked) [Econazole] |  |  | +VE | +VE | +VE | 
9 | Cc1cc(=O)n(-c2ccccc2)n1C [Antipyrine] |  |  |  | +VE | -VE | In vivo DILI ([2]; in vivo): -VE
10 | CC(C)(C(=O)O)c1ccc(C(O)CCCN2CCC(C(O)(c3ccccc3)c3ccccc3)CC2)cc1 (centres unmarked) [fexofenadine] |  |  |  |  |  | Cluser analysis (HepG2 cells): -VE
11 | C=CC1=C(C(=O)O)N2C(=O)[C@@H](NC(=O)/C(=N\OCC(=O)O)c3csc(N)n3)[C@H]2SC1 [cefixime] | -VE | Ambiguous DILI-concern | +VE | +VE | -VE | 
12 | Cc1cc2c(C(C)C)c(O)c(O)c(C=O)c2c(O)c1-c1c(C)cc2c(C(C)C)c(O)c(O)c(C=O)c2c1O [Gossypol] |  |  | +VE |  | +VE | 
13 | C#Cc1cccc(Nc2ncnc3cc(OCCOC)c(OCCOC)cc23)c1 [erlotinib] | +VE | vMost-DILI-Concern | +VE | +VE | +VE | 
14 | O=P(O)(O)C(Cl)(Cl)P(=O)(O)O [Clodronate] |  |  | -VE | -VE | -VE | 
15 | CC[C@]1(O)C[C@@H]2CN(CCc3c([nH]c4ccccc34)[C@@](C(=O)OC)(c3cc4c(cc3OC)N(C)[C@H]3[C@@](O)(C(=O)OC)[C@H](OC(C)=O)[C@]5(CC)C=CCN6CC[C@]43[C@@H]65)C2)C1 [vinblastine] |  |  |  | -VE |  | Cellular toxicity (3T3 cells) [5]: -VE; GSH adduct HML [5]: -VE; Hepatocyte cellular toxicity [5]: +VE; MitoTox 3T3 [5]: +VE; TDI CYP3A4 [5]: +VE; hBSEP inhibition [5]: +VE
16 | CC(C)(C)NC(=O)[C@@H]1C[C@@H]2CCCC[C@@H]2CN1C[C@@H](O)[C@H](Cc1ccccc1)NC(=O)[C@H](CC(N)=O)NC(=O)c1ccc2ccccc2n1 [saquinavir] | +VE | vLess-DILI-Concern | +VE | +VE | +VE | In vivo DILI ([2]; ref Schadt 2015): -VE
17 | COc1cccc2c1C(=O)c1c(O)c3c(c(O)c1C2=O)C[C@@](O)(C(C)=O)C[C@@H]3O[C@H]1C[C@H](N)[C@H](O)[C@H](C)O1 [daunorubicin] | -VE | vNo-DILI-Concern | +VE | +VE | +VE | 
18 | CC1=NS(=O)(=O)c2cc(Cl)ccc2N1 [diazoxide] | -VE | Ambiguous DILI-concern | -VE | +VE | -VE | 

Row | Compound | DILI +VE (5-8), DILI -VE (-4) ([1]; ref Chen 2016) | DILI severity category ([1]; ref Chen 2016) | In vivo DILI ([2]; ref Porceddu 2012) | in vitro data EC2<=1x Cmax [3] | in vitro data EC20<=2uM [3] | also measured
19 | O=C(O)c1nn(Cc2ccc(Cl)cc2Cl)c2ccccc12 [Lonidamine] |  |  | +VE | +VE | +VE | 
20 | Cc1ccc(NC(=O)c2ccc(CN3CCN(C)CC3)cc2)cc1Nc1nccc(-c2cccnc2)n1 [imatinib] |  |  |  | +VE |  | DILI +VE (5-8), DILI -VE (-4) ([1]; in vivo): +VE; DILI severity category ([1]; in vivo): vMost-DILI-Concern; In vivo DILI ([2]; in vivo): +VE
21 | CNS(=O)(=O)Cc1ccc2[nH]cc(CCN(C)C)c2c1 [sumatriptan] | -VE | Ambiguous DILI-concern | -VE | -VE | -VE | Structural based (HCI) (human hepatocytes; In vitro Assay, ref Xu 2008): -VE; In vivo DILI ([2]; ref Xu 2008): -VE
22 | CC[C@H]1OC(=O)[C@H](C)[C@@H](O[C@H]2C[C@@](C)(OC)[C@@H](O)[C@H](C)O2)[C@H](C)[C@@H](O[C@@H]2O[C@H](C)C[C@H](N(C)C)[C@H]2O)[C@](C)(O)C[C@@H](C)/C(=N\OCOCCOC)[C@H](C)[C@@H](O)[C@]1(C)O [roxithromycin] |  |  | +VE | +VE | -VE | 
23 | CO[C@]12C[C@@H](COC(=O)c3cncc(Br)c3)CN(C)[C@@H]1Cc1cn(C)c3cccc2c13 [Nicergoline] |  |  | -VE | -VE | +VE | 
24 | CCN1CCCC1CNC(=O)c1cc(S(=O)(=O)CC)c(N)cc1OC (centres unmarked) [amisulpride] |  |  |  |  |  | Cluser analysis (HepG2 cells; [6]): -VE; Structural based (HCI) (HepG2 cells; [6]): -VE; In vivo DILI ([2]; ref Persson 2013): -VE
25 | Nc1nc2ncc(CNc3ccc(C(=O)N[C@@H](CCC(=O)O)C(=O)O)cc3)nc2c(=O)[nH]1 [folic acid] |  |  |  | +VE |  | Partition Hybrid HRM Score ([4]; In vitro Assay, ref Aleo 2019): -VE; Ro2 Hybrid HRM Score ([4]; In vitro Assay, ref Aleo 2019): -VE
26 | Cc1c(O)cccc1C(=O)N[C@@H](CSc1ccccc1)[C@H](O)CN1C[C@H]2CCCC[C@H]2C[C@H]1C(=O)NC(C)(C)C [nelfinavir] | +VE | vLess-DILI-Concern | +VE | +VE | +VE | 
27 | O=C(O)CCCCCCNC1c2ccccc2CCc2ccccc21 [amineptine] |  |  |  |  |  | DILI +VE (5-8), DILI -VE (-4) ([1]; in vivo): +VE; DILI severity category ([1]; in vivo): vMost-DILI-Concern; Cluser analysis (HepG2 cells): -VE; Structural based (HCI) (HepG2 cells): -VE; Partition Hybrid HRM Score [4]: +VE; Ro2 Hybrid HRM Score [4]: -VE; In vivo DILI ([2]; in vivo): +VE
28 | Nc1ccn([C@@H]2CS[C@H](CO)O2)c(=O)n1 [lamivudine] |  |  |  | +VE |  | DILI +VE (5-8), DILI -VE (-4) ([1]; in vivo): +VE; DILI severity category ([1]; in vivo): vLess-DILI-Concern; Partition Hybrid HRM Score [4]: -VE
29 | O=C(O)CCCc1ccc(N(CCCl)CCCl)cc1 [chlorambucil] | +VE | vLess-DILI-Concern | +VE | +VE | +VE | 
30 | [Cl][Mn][Cl] [manganese chloride] |  |  | -VE | -VE | -VE | 
31 | O=[As]O[As]=O (centres unmarked) [arsenic trioxide] | -VE | Ambiguous DILI-concern | +VE | -VE | +VE | 
32 | O=C(O)c1ccccc1Nc1cccc(C(F)(F)F)c1 [Flufenamic acid] |  |  | +VE | +VE | +VE | 
33 | O=C1NS(=O)(=O)c2ccccc21 [Saccharin] |  |  | +VE | +VE | -VE | 
34 | Clc1ccccc1C(c1ccccc1)(c1ccccc1)n1ccnc1 [clotrimazole] | +VE | vLess-DILI-Concern | +VE | +VE | +VE | Structural based (HCI) (human hepatocytes; In vitro Assay, ref Xu 2008): -VE; Partition Hybrid HRM Score ([4]; In vitro Assay, ref Aleo 2019): +VE; Ro2 Hybrid HRM Score ([4]; In vitro Assay, ref Aleo 2019): +VE; In vivo DILI ([2]; […]): -VE; In vivo DILI ([2]; ref Aleo 2019): +VE; In vivo DILI ([2]; ref Xu 2008): -VE
35 | O=C(O)c1cc(-c2ccc(F)cc2F)ccc1O [diflunisal] | +VE | vMost-DILI-Concern | +VE | +VE | +VE | Structural based (HCI) (human hepatocytes; In vitro Assay, ref Xu 2008): +VE; In vivo DILI ([2]; ref Xu 2008): +VE
36 | CC(C)c1nc(CN(C)C(=O)N[C@H](C(=O)N[C@@H](Cc2ccccc2)C[C@H](O)[C@H](Cc2ccccc2)NC(=O)OCc2cncs2)C(C)C)cs1 [ritonavir] | +VE | vMost-DILI-Concern | +VE | +VE | +VE | Partition Hybrid HRM Score ([4]; In vitro Assay, ref Aleo 2019): +VE; Ro2 Hybrid HRM Score ([4]; In vitro Assay, ref Aleo 2019): +VE; In vivo DILI ([2]; ref Aleo 2019): +VE; In vivo DILI ([2]; ref Schadt 2015): +VE
